# Assays:
# [1] = tested on: murine mammary carcinoma 4T1 cells; assay: Photosensitizer-mediated PDT, in vitro proliferation (MTT), 4T1; format: cell-based
# Method: (§1) Several kinds of tumor cells (human cervical cancer Hela cells, human hepatocellular carcinoma huh-7 cells and murine mammary carcinoma 4T1 cells) cultured in vitro from a variety of tissues were taken as cell models, so as to investigate the photodynamic effects mediated by different doses of CEFN, CEFO, Ce6 and HPPH on the three different tumor cells (n=3). The specific experimental procedures were carried out as follows.
# (§2) Cells in the logarithmic growth phase were harvested and seeded in a 24-well plate. After growing to a confluence of 70-80%, the cells were randomly divided into a control group (free of drug and light irradiation), a drug group and a photodynamic group. The CEFN, CEFO, Ce6 and HPPH were added respectively in dark, and for each drug, four final concentrations 1, 2, 5, and 10 μg/mL were set with 3 replicates for each group. After the co-incubation, the groups were treated individually. Regarding the photodynamic group, the light irradiation was performed at a wavelength of 660 nm and three different light intensities, i.e., 2, 4 and 8 J/cm^2. After that, each group was digested, and were inoculated into a 96-well plate at 100 μL per well with 4 replicates for each treatment. 24 hours later, the 96-well plate was subjected to MTT assay as follows. Each well was added with 20 μL of MTT (3-4,5-dimethylthiazol-2,5-diphenyltetrazolium bromide) solution in the dark and incubated for 4 hours. The supernatant was discarded, and the residue was dissolved with 150 μL of dimethyl sulfoxide for 15 min. After that, the 96-well plate was measured by a microplate reader for the absorbance (OD value). The relative cell viability was calculated as follows: relative cell viability=OD value of experimental group/OD value of control group*100%.
# In this experiment, photodynamic effect mediated by the compounds (except CEFO and CEFN) in different Examples of this disclosure on the murine mammary carcinoma 4T1 cells was investigated. The experimental procedures are carried out as follows. Cells in the logarithmic growth phase were harvested and seeded in a 24-well plate. After growing to a confluence of 70-80%, the cells were randomly divided into multiple photodynamic groups and multiple no-light control groups. The compounds (as shown in Table 8a) with a final concentration of 10 μg/mL were added to each group respectively in dark with 3 replicates for each group, so as to co-incubate the cells with the drug. Regarding the multiple photodynamic groups, the light irradiation was performed at a wavelength of 660 nm and the light intensity of 8 J/cm^2. After that, each group was digested, and were inoculated into a 96-well plate at 100 μL per well with 4 replicates for light treatment and no light treatment. 24 hours later, the 96-well plate was measured by MTT assay as follows. Each well was added with 20 μL of MTT (3-4,5-dimethylthiazol-2,5-diphenyltetrazolium bromide) solution in the dark and incubated for 4 hours. The supernatant was discarded, and the residue was dissolved with 150 μL of dimethyl sulfoxide for 15 min. After that, the 96-well plate was measured by a microplate reader for the absorbance (OD value). The relative cell viability of the murine mammary carcinoma 4T1 cells was calculated as follows according to the measured absorbance (OD value) in each group: relative cell viability=OD value of experimental group/OD value of control group*100%.
# [2] = tested on: murine mammary carcinoma 4T1 cells; assay: Antitumor activity as photosensitizers on tumor-bearing mice (two PDT treatments); format: in vivo
# Method: (§3) The murine mammary carcinoma cells (4T1 line) were subjected to adherent culture. After growing to a confluence of 70%-80%, the cells in the culture flask were routinely digested, centrifuged and counted, and then resuspended with 0.85% normal saline to a density of 1×10^7 cells/mL. The cell suspension was injected into the left lateral middle axillary subcutaneous part of […] Bal b/c healthy mice (female, aged 6-8 weeks) at 0.1 mL/mouse. When the tumor diameter, which was observed every other day, reached 0.6-0.8 cm, the mice with well-growing tumors and no ulcers on the epidermis were selected for grouped treatment.
# (2) Mice with similar body weight and uniform tumor size are selected and randomly divided into 4 groups with 6 mice for each group. After inoculation of 4T1 cells and the tumor volume grows to 50˜80 mm^3, the mice were subjected to a first drug administration from the tail vein by group.
# 6 h after the drug administration, the mice were fixed to expose the tumor growth site. As a first PDT treatment, light irradiation was performed for 8 min, using PDT-660 photodynamic therapy equipment at the laser wavelength of 660 nm and the light dose of 150 Joule/cm^2. One week later, the second PDT treatment (the dosage and lighting conditions were the same as those of the first PDT treatment) was performed. The mice were sacrificed 14 days after the treatment. The tumor was removed, weighed and recorded.
# [3] = tested on: murine mammary carcinoma 4T1 cells; assay: Antitumor activity as photosensitizers on tumor-bearing mice (one PDT treatment); format: in vivo; conditions: for Inhibitory rate (average ± SD, %) / Tumor weight (average ± SD, g): 660 nm, 75 Joule/cm^2 6 h after dosing, 7 days after PDT; for Body weight At the begining / Body weight At the end: one PDT treatment, mice, in g (unit assumed)
# Method: as §3
# (1) Mice with similar body weight and uniform tumor size are selected and randomly divided into 7 groups with 6 mice for each group. After inoculation for 48 h, the mice were subjected to drug administration separately from the tail vein by group.
# 6 h after the drug administration, the mice were fixed to expose the tumor growth site. Light irradiation was performed for 8 min, using PDT-660 photodynamic therapy equipment at a laser wavelength of 660 nm and a light dose of 75 Joule/cm^2. Then both of the mice growth and tumor growth are observed continuously. 7 days after photodynamic therapy, the animals were sacrificed. The tumor was stripped and weighed, and the body weight was recorded.
# [4] = tested on: human cervical cancer Hela cells; assay: Photosensitizer-mediated PDT, in vitro proliferation (MTT), Hela; format: cell-based; conditions: Hela
# Method: as §1, §2
# [5] = tested on: human hepatocellular carcinoma huh-7 cells; assay: Photosensitizer-mediated PDT, in vitro proliferation (MTT), huh-7; format: cell-based
# Method: as §1, §2
# [6] = background statement; cited from earlier work
# [7] = 0.25 mg/kg tail vein, two PDT treatments one week apart, 660 nm, 150 Joule/cm^2, 14 days after treatment
# [8] = 0.25 mg/kg, two PDT treatments, mice, in g (unit assumed)
smiles,measurement,setting,value
"CCCCCCOC(C)c1c(C)c2cc3nc(c4c5[nH]c(cc6nc(cc1[nH]2)C(C)=C6CC)c(C)c5C(=O)C4)[C@@H](CCC(=O)O)[C@@H]3C (stereo partly shown) [HPPH, 2-(1-hexyloxyethyl)-2-devinyl pyropheophorbide-a, reference compound]",cell viability (%),"[1]; 1 μg/mL, 660 nm, 8 J/cm^2",83 ± 3%
same,cell viability (%),"[1]; 1 μg/mL, no light",107 ± 4%
same,cell viability (%),"[1]; 2 μg/mL, 660 nm, 8 J/cm^2",53 ± 2%
same,cell viability (%),"[1]; 2 μg/mL, no light",103 ± 2%
same,cell viability (%),"[1]; 5 μg/mL, 660 nm, 8 J/cm^2",33 ± 2%
same,cell viability (%),"[1]; 5 μg/mL, no light",98 ± 1%
same,cell viability (%),"[1]; 10 μg/mL, 660 nm, 8 J/cm^2",11 ± 2%
same,cell viability (%),"[1]; 10 μg/mL, no light",99 ± 44%
same,"Inhibitory rate (average ± SD, %)",[2]; [7],90.7 ± 2.1%
same,"Tumor weight (average ± SD, g)",[2]; [7],0.088 ± 0.020 g
same,Body weight At the beginning,[2]; [8],20.5 ± 0.4
same,Body weight At the end,[2]; [8],22.5 ± 0.2
same,"Inhibitory rate (average ± SD, %)",[3]; 0.2 mg/kg tail vein,72.2 ± 3.5%
same,"Tumor weight (average ± SD, g)",[3]; 0.2 mg/kg tail vein,0.045 ± 0.006 g
same,Body weight At the begining,[3]; 0.2 mg/kg,20.5 ± 0.4
same,Body weight At the end,[3]; 0.2 mg/kg,21.6 ± 0.4
same,"Inhibitory rate (average ± SD, %)",[3]; 0.4 mg/kg tail vein,89.5 ± 2.5%
same,"Tumor weight (average ± SD, g)",[3]; 0.4 mg/kg tail vein,0.017 ± 0.004 g
same,Body weight At the begining,[3]; 0.4 mg/kg,20.7 ± 0.3
same,Body weight At the end,[3]; 0.4 mg/kg,21.8 ± 0.2
same,cell viability (%),"[4]; 1 μg/mL, 660 nm, 8 J/cm^2",65 ± 4%
same,cell viability (%),"[4]; 1 μg/mL, no light",100 ± 3%
same,cell viability (%),"[4]; 2 μg/mL, 660 nm, 8 J/cm^2",46 ± 1%
same,cell viability (%),"[4]; 2 μg/mL, no light",100 ± 2%
same,cell viability (%),"[4]; 5 μg/mL, 660 nm, 8 J/cm^2",25 ± 2%
same,cell viability (%),"[4]; 5 μg/mL, no light",102 ± 3%
same,cell viability (%),"[4]; 10 μg/mL, 660 nm, 8 J/cm^2",12 ± 4%
same,cell viability (%),"[4]; 10 μg/mL, no light",96 ± 4%
same,cell viability (%),"[5]; 1 μg/mL, 660 nm, 8 J/cm^2",68 ± 3%
same,cell viability (%),"[5]; 1 μg/mL, no light",102 ± 4%
same,cell viability (%),"[5]; 2 μg/mL, 660 nm, 8 J/cm^2",37 ± 3%
same,cell viability (%),"[5]; 2 μg/mL, no light",98 ± 2%
same,cell viability (%),"[5]; 5 μg/mL, 660 nm, 8 J/cm^2",26 ± 2%
same,cell viability (%),"[5]; 5 μg/mL, no light",97 ± 1%
same,cell viability (%),"[5]; 10 μg/mL, 660 nm, 8 J/cm^2",12 ± 2%
same,cell viability (%),"[5]; 10 μg/mL, no light",101 ± 4%
same,water solubility,[6],water-insoluble
